Measured values taken from US5756527A, “Imidazole derivatives useful as modulators of multi drug resistances” (Ontogen Corporation, priority 1997, dated 1998).

Tests used:
[1] = tested on: CEM/VLB1000; assay: Cytotoxicity potentiation (alamar blue) of vinblastine in multidrug-resistant cells; assay type: cell-based; details: midpoint of minimum and maximum cytotoxicity induced by 3-5 μg/mL vinblastine and compound, 48 h
Protocol: Multidrug-resistant cell lines are easily obtainable for in vitro determination of drug sensitization by compounds of the present invention. In vitro potentiation of antineoplastic cytotoxicity by the imidazole derivatives of the present invention was measured in both CEM/VLB1000 and SK/VLB1000 cell lines. The multidrug resistant cell lines were obtained from Dr. Victor Ling, Ontario Cancer Institute, Toronto, Canada. The CEM/VLB 1000 cell line was maintained as a suspension in minimum essential medium supplemented with 10% fetal bovine serum in a humidied atmosphere of 95% air and 5% CO2 while the SK/VLB 1000 cell line was maintained as adherent cells using the identical medium conditions as the CEM cells. The CEM/VLB 1000 cells were seeded at a density of 5×10^4 cells/well in a 96 well microtiter plate while the SK/VLB 1000 cell line was seeded at a density of 2,500 cells/well after trypsinization. Vinblastine (5 μg/mL, for the CEM cells) or Taxol (3 μg/mL, for the SK cells) and compound (0.01 to 50 μM) were added directly to the wells. After an incubation of 48 hours in presence of drug, alamar blue (B. Page et al., Int. J. Oncol. 3: 473-476, 1993) was added (10 μL to the 200 μL cell suspension) for a period of 24 hours after which the fluorescence (excitation=530 nm, emission=590 nm) was read for each well using a "CytoFluor" microtiter fluorometer plate reader. This assay measures the effective concentration of compound necessary to enhance the cytotoxicity (EC50) of vinblastine in the MDR cell line.
^1 Values presented are the midpoint (EC50) of the minimum and
maximum cytotoxicity induced by 3-5 μg/mL vinblastine and the specific
compound of the present invention.

[2] = tested on: CEM/VLB1000; assay: [3H]-vinblastine (VLB) accumulation assay; assay type: cell-based; details: midpoint of minimum and maximum increase in accumulation of 3H-vinblastine (275 nM), 3 hours at 37° C.
Protocol: ^3 H-vinblastine accumulation was also measured in the CEM/VLB1000 cell line. Corning Easy-Wash 96 well plates were pretreated with PBS and 1% BSA for 60 minutes and then removed. CEM/VLB1000 cells were seeded at 2×10^5, 40 μL volume. Plates were incubated at 37° C. for 30-60 minutes prior to use. The reference reversing agent, verapamil, or the compound of the present invention was added to the well followed by addition of media containing ^3 H-vinblastine (final concentration=275nM). Plates were allowed to incubate for 3 hours at 37° C. Cells were harvested onto pretreated Wallace filtermats A (pretreated with 0.1% polyethyleneimine) using a TomTek harvester-96. After filtering, the filtermats were allowed to dry completely. Meltix B scintillant was then added to the filtermats. The filters were then placed in a 90° C. oven for approximately 3-5 minutes and then removed. Scintillant was allowed to solidify on the filtermats. Filtermats were then placed in sample bags and read on a Wallace BetaPlate scintillation counter. The effects of compounds of the present invention in the cytotoxicity potentiation assays and vinblastine (VLB) accumulation assay are given in the Table below:
^2 Values presented are the midpoint (EC50) of the minimum and
maximum increase in accumulation of ^3 Hvinblastine caused by the
specific compound of the present invention.

| SMILES | EC50 [1] | EC50 [2] |
| --- | --- | --- |
| CC(C)OC(=O)/C=C/c1ccc(-c2nc(-c3ccc(N(C)C)cc3)c(-c3ccc(N(C)C)cc3)[nH]2)cc1 [Example 38, 2-[4-(trans-i-propylpropenoate)phenyl]-4,5-bis[(4-N,N-dimethylamino)phenyl]imidazole] | 0.138 µM | 2.4 µM |
| CN(C)c1ccc(-c2nc(-c3ccc(/C=C/C(=O)OC(C)(C)C)cc3)[nH]c2-c2ccc(N(C)C)cc2)cc1 [Example 39, 2-[4-(trans-t-butylpropenoate)phenyl]-4,5-bis[(4-N,N-dimethylamino)phenyl] imidazole] | 0.59 µM | 4.5 µM |
| CCN(CC)c1ccc(-c2[nH]c(-c3ccc(/C=C/C(=O)OC)cc3)nc2-c2ccc(NC)cc2)cc1 [Example 40, 2-[4-(trans-methylpropenoate)phenyl]-4-[(4-N,N-diethylamino)phenyl]-5-[(4-N-methylamino)phenyl] imidazole] | 0.226 µM | 1.1 µM |
| CCN(CC)c1ccc(-c2nc(-c3ccc(/C=C/C(=O)OC(C)C)cc3)[nH]c2-c2ccc(NC)cc2)cc1 [Example 41, 2-[4-(trans-i-propylpropenoate)phenyl]-4-[(4-N,N-diethylamino)phenyl]-5-[(4-N-methylamino)phenyl] imidazole] | 0.42 µM | 6 µM |
| CNc1ccc(-c2[nH]c(-c3ccc(/C=C/C(=O)OC)cc3)nc2-c2ccc(N(C)C)cc2)cc1 [Example 42, 2-[4-(trans-methylpropenoate)phenyl]-4-[(4-N,N-dimethylamino)phenyl]-5-[(4-N-methylamino)phenyl] imidazole] | 0.17 µM | 1.1 µM |
| CCCN(C)c1ccc(-c2nc(-c3ccc(/C=C/C(=O)OC)cc3)[nH]c2-c2ccc(NC)cc2)cc1 [Example 43, 2-[4-(trans-methylpropenoate)phenyl]-4-[(4-N-methyl-N-propylamino)phenyl]-5-[(4-N-methylamino)phenyl] imidazole] | 0.148 µM | 2.3 µM |
| CCCN(CCC)c1ccc(-c2[nH]c(-c3ccc(/C=C/C(=O)OC)cc3)nc2-c2ccc(NC)cc2)cc1 [Example 44, 2-[4-(trans-methylpropenoate)phenyl]-4-[(4-N,N-dipropylamino)phenyl]-5-[(4-N-methylamino)phenyl] imidazole] | 0.165 µM | 1.4 µM |
| CCCCN(CCCC)c1ccc(-c2[nH]c(-c3ccc(/C=C/C(=O)OC)cc3)nc2-c2ccc(NC)cc2)cc1 [Example 45, 2-[4-(trans-methylpropenoate)phenyl]-4-[(4-N,N-dibutylamino)phenyl]-5-[(4-N-methylamino)phenyl] imidazole] | 1.9 µM | 10 µM |
| CNc1ccc(-c2nc(-c3ccc(/C=C/C(=O)OC)cc3)[nH]c2-c2ccc(NC)cc2)cc1 [Example 46, 2-[4-(trans-methylpropenoate)phenyl]-4,5-bis(4-N-methylaminophenyl) imidazole] | 0.203 µM | 1.4 µM |
| CNc1ccc(-c2[nH]c(-c3ccc(/C=C/C(=O)OC)cc3)nc2-c2ccc(NC(C)C)cc2)cc1 [Example 47, 2-[4-(trans-methylpropenoate)phenyl]-4-[(4-N-i-propylamino)phenyl]-5-[(4-N-methylamino)phenyl] imidazole] | 0.194 µM | 0.87 µM |
| CNc1ccc(-c2[nH]c(-c3ccc(/C=C/C(=O)OC)cc3)nc2-c2ccc(NC(C)(C)C)cc2)cc1 [Example 48, 2-[4-(trans-methylpropenoate)phenyl]-4-[(4-N-t-butylamino)phenyl]-5-[(4-N-methylamino)phenyl] imidazole] | 0.24 µM | 1.2 µM |
| CCN(CC)c1ccc(-c2nc(-c3ccc(/C=C/C(=O)OC)cc3)[nH]c2-c2ccc(N(CC)CC)cc2)cc1 [Example 49, 2-[4-(trans-methylpropenoate)phenyl]-4,5-bis(4-N,N-diethylaminophenyl) imidazole] | 0.675 µM | 5 µM |
| CCN(CC)c1ccc(-c2nc(-c3ccc(/C=C/C(=O)OC)cc3)[nH]c2-c2ccc(N(C)C)cc2)cc1 [Example 50, 2-[4-(trans-methylpropenoate)phenyl]-4-[(4-N,N-diethylamino)phenyl]-5-[(4-N,N-dimethylamino)phenyl] imidazole] | 0.225 µM | 4.9 µM |
| COC(=O)/C=C/c1ccc(-c2nc(-c3ccc(N)cc3)c(-c3ccc(N(C)C)cc3)[nH]2)cc1 [Example 51, 2-[4-(trans-methylpropenoate)phenyl]-4-[(4-N,N-dimethylamino)phenyl]-5-(4-aminophenyl) imidazole] | 0.48 µM | 2.6 µM |
| CCN(CC)c1ccc(-c2[nH]c(-c3ccc(/C=C/C(=O)OC)cc3)nc2-c2ccc(N)cc2)cc1 [Example 52, 2-[4-(trans-methylpropenoate)phenyl]-4-[(4-N,N-diethylamino)phenyl]-5-(4-aminophenyl) imidazole] | 0.275 µM | 2.6 µM |
| CNc1ccc(-c2nc(-c3ccc(/C=C/C(=O)OC)cc3)[nH]c2-c2ccc(F)cc2)cc1 [Example 53, 2-[4-(trans-methylpropenoate)phenyl]-4-[(4-N-methylamino)phenyl]-5-(4-fluorophenyl) imidazole] | 0.63 µM | 6.5 µM |
| COC(=O)/C=C/c1cccc(-c2nc(-c3ccc(N(C)C)cc3)c(-c3ccc(N(C)C)cc3)[nH]2)c1 [Example 54, 2-[3-(trans-methylpropenoate)phenyl]-4,5-bis(4-N,N-dimethylaminophenyl) imidazole] | 0.256 µM | 4.8 µM |
| COC(=O)/C=C/c1cc(-c2nc(-c3ccc(N(C)C)cc3)c(-c3ccc(N(C)C)cc3)[nH]2)ccc1OC [Example 55, 2-[4-methoxy-3-(trans-methylpropenoate)phenyl]-4,5-bis(4-N,N-dimethylaminophenyl) imidazole] | 0.37 µM | 6 µM |
| COC(=O)/C=C/c1ccc(OC)c(-c2nc(-c3ccc(N(C)C)cc3)c(-c3ccc(N(C)C)cc3)[nH]2)c1 [Example 56, 2-[2-methoxy-5-(trans-methylpropenoate)phenyl]-4,5-bis(4-N,N-dimethylaminophenyl) imidazole] | 0.126 µM | 2.8 µM |
| COC(=O)/C=C/c1cc(-c2nc(-c3ccc(N(C)C)cc3)c(-c3ccc(N(C)C)cc3)[nH]2)cc(OC)c1OC [Example 57, 2-[3,4-dimethoxy-5-(trans-methylpropenoate)phenyl]-4,5-bis(4-N,N-dimethylaminophenyl) imidazole] | 0.453 µM | 2.8 µM |
| COC(=O)/C=C/c1cc(-c2nc(-c3ccc(N(C)C)cc3)c(-c3ccc(N(C)C)cc3)[nH]2)ccc1F [Example 58, 2-[4-fluoro-3-(trans-methylpropenoate)phenyl]-4,5-bis(4-N,N-dimethylaminophenyl) imidazole] | 0.134 µM | 2 µM |
| CNc1ccc(-c2[nH]c(-c3ccc(F)c(/C=C/C(=O)OC)c3)nc2-c2ccc(N(C)C)cc2)cc1 [Example 59, 2-[4-fluoro-3-(trans-methylpropenoate)phenyl]-4-[(4-N,N-dimethylamino)phenyl]-5-[(4-N-methylamino)phenyl] imidazole] | 0.57 µM | 3.2 µM |
| CCOCCCc1ccc(-c2nc(-c3ccc(N(C)C)cc3)c(-c3ccc(N(C)C)cc3)[nH]2)cc1 [Example 69, 2-[4-(3-ethoxypropyl)phenyl]-4,5-bis[(4-N,N-dimethylamino)phenyl] imidazole] | 0.21 µM |  |
| CCCCOc1ccc(-c2nc(-c3ccc(N(C)C)cc3)c(-c3ccc(N(C)C)cc3)[nH]2)cc1 [Example 70, 2-[4-butyloxyphenyl]-4,5-bis[(4-N,N-dimethylamino)phenyl] imidazole] | 0.43 µM |  |
| COCCOc1ccc(-c2nc(-c3ccc(N(C)C)cc3)c(-c3ccc(N(C)C)cc3)[nH]2)cc1 [Example 71, 2-[4-(2-methoxyethoxy)phenyl]-4,5-bis[(4-N,N-dimethylamino)phenyl] imidazole] | 0.17 µM |  |
| COCCOc1ccc(-c2nc(-c3ccc(N(C)C)cc3)c(-c3ccc(N(C)C)cc3)[nH]2)cc1OC [Example 72, 2-[3-methoxy-4-(2-methoxyethoxy)-phenyl]-4,5-bis[(4-N,N-dimethylamino)phenyl] imidazole] | 0.16 µM |  |
